Assay [1] relates to cultured human mast cells (CHMC). Put plainly: CHMC low cell density ionomycin activation: tryptase assay. In kind it is cell-based.
Assay [2] shares this test system. Description: CHMC low cell density IgE activation: tryptase assay. The assay is classed as cell-based. The following applies: anti-IgE. The procedure, abridged:
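Cells pelleted, taken up in warm MT, plated at 1000-1500/well, held 1 hr 37° C. Anti-IgE added, 30 min 37° C. Plates spun; supernatant mixed with tryptase substrate, 30 min RT.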

For 30 compounds, IC50 results are on record in patent publication US9499493B2, “2,4-pyrimidinediamine compounds and their uses” (Rigel Pharmaceuticals, Inc., priority 2002, dated 2016).

With `CNC(=O)COc1cccc(Nc2ncc(F)c(Nc3ccc4c(c3)C(O)CCO4)n2)c1` (stereo not drawn) [R950349, N4-(4-Hydroxy-3,4-dihydro-2H-1-benzopyran-6-yl)-5-fluoro-N2-[3-(N-methylamino)carbonylmethyleneoxyphenyl]-2,4-pyrimidinediamine], the concentration for half-maximal inhibition (IC50) is more than 10 µM in assay [1] and 0.078 µM in assay [2].
The matching figures for `CNC(=O)COc1cccc(Nc2ncc(F)c(Nc3ccc4c(c3)N(C)C(=O)CO4)n2)c1` [R909260, 5-Fluoro-N2-[3-(N-methylaminocarbonylmethyleneoxy)phenyl]-N4-[6-(N-methyl-1,4-benzoxazin-3-onyl)]pyrimidinediamine]: more than 10 µM and 1.04 µM.
As for `O=C(COc1cccc(Nc2ncc(F)c(Nc3ccc4c(c3)OCCO4)n2)c1)N1CCOCC1` [R926484, N4-(3,4-Ethylenedioxyphenyl)-5-fluoro-N2-[3-(N-morpholino)carbonylmethyleneoxyphenyl]-2,4-pyrimidinediamine], the figures for the IC50 in assay [1] and in assay [2] were more than 10 µM and 1.52 µM, respectively.
`Fc1cnc(Nc2ccc3c(c2)OCCO3)nc1Nc1ccc(OCc2nc(-c3ccccc3)no2)cc1` [R935140, N2-(3,4-Ethylenedioxyphenyl)-5-fluoro-N4-[4-(3-phenyl-1,2,4-oxadiazol-5-yl)methyleneoxyphenyl]-2,4-pyrimidinediamine]: the IC50 turned out to be 0.959 µM in assay [1] and 0.275 µM in assay [2].
For `CCOC(=O)COc1ccc(Nc2ncc(F)c(Nc3ccc4c(c3)OCCO4)n2)cn1` [R926740, N2-[2-(Ethoxycarbonylmethyleneoxy)pyridin-5-yl]-N4-(3,4-ethylenedioxyphenyl)-5-fluoro-2,4-pyrimidinediamine], the IC50 was more than 10 µM in assay [1] and 4.42 µM in assay [2].
Consider `CCOC(=O)CNc1nc(Nc2ccc(OCC(=O)OCC)cc2)nc(C(=O)OCC)c1[N+](=O)[O-]` [R925858, 6-Ethoxycarbonyl-N4-(ethoxycarbonylmethyl)-N2-(4-ethoxycarbonylmethyleneoxyphenyl)-5-nitro-2,4-pyrimidinediamine], for which the IC50 in assay [1] came out at 7.3 µM; in assay [2], 8.05 µM.
`O=C(COc1ccc(Nc2ncc(F)c(Nc3ccc(OCC(=O)N4CCCC4)cc3)n2)cc1)N1CCCC1` [R926563, N2,N4-Bis(4-N-pyrrolidinocarbonylmethyleneoxyphenyl)-5-fluoro-2,4-pyrimidinediamine]: the IC50 in assay [1] and in assay [2] was more than 10 µM each time.
`COC(=O)Cn1ncc2ccc(Nc3ncc(F)c(Nc4ccc5c(c4)OCCO5)n3)cc21` [R935208, N4-(3,4-ethylenedioxyphenyl)-5-fluoro-N2-[1-(methoxycarbonyl)methyl-indazoline-6-yl]-2,4-pyrimidinediamine]: the values for the IC50 in assay [1] and in assay [2] were more than 10 µM and 1.27 µM, respectively.
For `CCOC(=O)CCn1ncc2ccc(Nc3nc(Nc4cccc(OC(C)C)c4)ncc3F)cc21` [R935289, N4-[1-(2-Ethoxycarbonylethyl)indazoline-6-yl]-5-fluoro-N2-(isopropoxyphenyl)-2,4-pyrimidinediamine] the same measures were more than 10 µM and 1.69 µM.
As to `COc1cccc(Nc2nc(Nc3cccc(OCC(=O)NCC(O)CO)c3)ncc2F)c1` (stereo not drawn) [R926739, N2-[3-(N-2,3-Dihydroxypropylamino)carbonylmethyleneoxyphenyl]-5-fluoro-N4-(3-methoxyphenyl)-2,4-pyrimidinediamine], the IC50 in assay [1] is more than 10 µM; in assay [2], 0.508 µM.
For the compound `CCOC(=O)c1cnc(Nc2ccc3c(c2)NC(=O)CO3)nc1Nc1ccc2c(c1)NC(=O)CO2` [R926325, N2,N4-Bis[6-(1,4-benzoxazine-3-onyl)]-5-ethoxycarbonyl-2,4-pyrimidinediamine], the IC50 in assay [1] and in assay [2] was more than 10 µM each time.
As for `CNC(=O)COc1cccc(Nc2nc(Nc3ccc(OCCN(C)C)cc3)ncc2F)c1` [R909253, N2-[4-(2-N,N-Dimethylaminoethyl)oxyphenyl]-5-fluoro-N4-[3-(N-methylamino)carbonylmethyleneoxyphenyl]-2,4-pyrimidinediamine], the IC50 is more than 10 µM in assay [1] and 7.96 µM in assay [2].
For `Fc1cnc(Cl)nc1Nc1ccc2c(c1)CNCC2` [Compound R926912] the same measures were more than 10 µM and more than 10 µM.
As for `COC(=O)COc1ccc(Nc2ncc(F)c(Nc3ccc(OCC(N)=O)cc3)n2)cc1` [R945052, N4-(4-Aminocarbonylmethyleneoxyphenyl)-5-fluoro-N2-(4-methoxycarbonylmethyleneoxyphenyl)-2,4-pyrimidinediamine], the IC50 in assay [1] turned out to be 2.48 µM; in assay [2] it was 0.425 µM.
With `C[C@H](Nc1nc(Nc2ccc3c(c2)OCCO3)ncc1F)[C@H](O)c1ccccc1` [R925766, N2-(3,4-Ethylendioxyphenyl)-5-fluoro-N4-[(2R)-hydroxy-(1S)-methyl-2-phenylethyl)-2,4-pyrimidinediamine], the IC50 was more than 10 µM in assay [1] and 8.9 µM in assay [2].
Regarding `Fc1cnc(Nc2ccc3cn[nH]c3c2)nc1Nc1ccc2c(c1)OCCO2` [R935190, N4-(3,4-Ethylenedioxyphenyl)-5-fluoro-N2-(indazolin-6-yl)-2,4-pyrimidinediamine], the values for the IC50 in assay [1] and in assay [2] were more than 10 µM and 0.156 µM, respectively.
The matching figures for `CNC(=O)COc1cc(Nc2ncc(F)c(Nc3ccc4cc[nH]c4c3)n2)ccc1OC` [R926752, 5-Fluoro-N4-[(1H)-indol-6-yl]-N2-[4-methoxy-3-[(N-methylamino)carbonylmethyleneoxy]phenyl]-2,4-pyrimidinediamine]: more than 10 µM and 0.338 µM.
Turning to `CNC(=O)COc1cccc(Nc2ncc(F)c(Nc3cccc(B(O)O)c3)n2)c1` [R926754, 5-Fluoro-N4-(3-dihydroxyborylphenyl)-N2-[3-[(N-methylamino)carbonylmethyleneoxy]phenyl]-2,4-pyrimidinediamine], the IC50 is more than 10 µM in assay [1] and 0.388 µM in assay [2].
Turning to `CCOC(=O)COc1cccc(Nc2ncc(F)c(Nc3cc(C)c(O)c(C)c3)n2)c1` [R940253, N4-(3,5-Dimethyl-4-hydroxyphenyl)-N2-(3-ethoxycarbonylmethyleneoxyphenyl)-5-fluoro-2,4-pyrimidinediamine], the IC50 in assay [1] was more than 10 µM; in assay [2], 1.01 µM.
In the case of `CC(C)Oc1ccc(Nc2ncc(F)c(Nc3ccc4c(cnn4C)c3)n2)cc1` [R935203, 5-Fluoro-N2-(4-isopropoxyphenyl)-N4-(1-methyl-indazoline-5-yl)-2,4-pyrimidinediamine], the IC50 in assay [1] was more than 10 µM; in assay [2], 0.562 µM.
The matching figures for `CCOc1ccc(Nc2nc(Nc3ccc4c(c3)OCCO4)ncc2F)cc1` [R920670, N4-(4-ethyloxyphenyl)-N2-(3,4-ethylenedioxyphenyl)-5-fluoro-2,4-pyrimidinediamine]: more than 10 µM and 2.18 µM.
Take `N#Cc1cnc(Nc2ccc(OCC(=O)NCC3CC3)cc2)nc1Nc1ccc(OCC(=O)NCC2CC2)cc1` [R925859, N2,N4-Bis[4-(N-cyclopropylmethylamino)carbonylmethyleneoxyphenyl]-5-cyano-2,4-pyrimidinediamine]: the IC50 in assay [1] and in assay [2] was more than 10 µM each time.
For `NC(=O)Cn1c(=O)oc2ccc(Nc3ncc(F)c(Nc4ccc5c(c4)OCCO5)n3)cc21` [R926847, N2-[5-(N-Aminocarbonylmethylene-2-oxo-1,3-oxazol-3(2H)-yl)phenyl]-N4-(3,4-ethylenedioxyphenyl)-5-fluoro-2,4-pyrimidinediamine], the IC50 turned out to be 6.26 µM in assay [1] and 1.48 µM in assay [2].
The matching figures for `Cc1noc(COc2cccc(Nc3nc(Nc4cccc(O)c4)ncc3F)c2)n1` [R945130, 5-Fluoro-N2-(3-hydroxyphenyl)-N4-[3-(3-methyl-1,2,4-oxadiazol-5-yl)methyleneoxyphenyl]-2,4-pyrimidinediamine]: more than 10 µM and 1.87 µM.
As to `CCOC(=O)CCn1ncc2ccc(Nc3ncc(F)c(Nc4ccc5c(c4)OCCO5)n3)cc21` [R935286, N2-[1-(2-ethoxycarbonylethyl)indazoline-6-yl]-N4-(3,4-ethylenedioxyphenyl)-5-fluoro-2,4-pyrimidinediamine], the results for the IC50 in assay [1] and in assay [2] were more than 10 µM and 1.16 µM, respectively.
As to `Oc1cccc(Nc2nc(Nc3cc(Br)cc(C(F)(F)F)c3)ncc2F)c1` [R926846, N2-(3-Bromo-5-trifluorophenyl)-5-fluoro-N4-(3-hydroxyphenyl)-2,4-pyrimidinediamine], the IC50 is 6.26 µM in assay [1] and 0.86 µM in assay [2].
Take `O=C(CNc1cccc(Nc2ncc(F)c(Nc3ccc4c(c3)OCCO4)n2)c1)NCCN1CCOCC1` [R950200, N4-(3,4-Ethylenedioxyphenyl)-5-fluoro-N2-[3-(N-2-morpholinoethyleneamino)carbonylmethyleneaminophenyl]-2,4-pyrimidinediamine]: the IC50 in assay [1] was more than 10 µM; in assay [2] it was 0.245 µM.
The matching figures for `O=C(COc1cccc(Nc2ncc(F)c(Nc3ccc4c(c3)OCCO4)n2)c1)NCCOC(=O)CCCCC1SCC2NC(=O)NC21` (stereo not drawn) [R926811, N4-(3,4-Ethylenedioxyphenyl)-5-fluoro-N2-[3-[N-2-(D)-(+)-biotinylethylamino]carbonylmethyleneoxyphenyl]-2,4-pyrimidinediamine]: more than 10 µM and 3.66 µM.
With `COc1ccc(Nc2nc(NC3CCN(Cc4ccccc4)CC3)ncc2F)cc1OC` [R940263, N2-[4-(N-Benzylpiperidino)]-N4-(3,4-dimethoxyphenyl)-5-fluoro-2,4-pyrimidinediamine], the IC50 in assay [1] and in assay [2] was more than 10 µM throughout.
For `CCOC(=O)COc1cccc(Nc2ncc(C(=O)OCC)c(Nc3cccc(O)c3)n2)c1` [R926798, N4-(3-Hydroxyphenyl)-N2-(3-ethoxycarbonylmethyleneoxyphenyl)-5-ethoxycarbonyl-2,4-pyrimidinediamine], the IC50 in assay [1] stood at 5.87 µM; in assay [2], 2.35 µM.
